Data on one compound can be found in US20180325825A1 (GEMPHIRE THERAPEUTICS INC., priority 2015, published 2018).

Each structure is given as a SMILES string.

For data set [1] the following is noted: background statement, cited from earlier work.
A short description of data set [2]: Pharmacokinetics of prototype combinations of atorvastatin and gemcabene after a single oral dose to male dogs. The following applies: 150 mg gemcabene IR, composite data from all animals. The class given is in vivo, male purebred beagle dogs.

On to `CC(C)(CCCCOCCCCC(C)(C)C(=O)O)C(=O)O` [gemcabene, 6,6′-oxybis(2,2-dimethylhexanoic acid)], for which, in data set [1], the “completeness of intestinal absorption in absence or presence of food” value is given as “essentially unchanged”; the “effect on the pharmacokinetics of simvastatin and atorvastatin in vivo” value is recorded as “not to significantly affect”. For the same compound, the “absorption in the intestines” value in data set [1] (oral) is “almost complete absorption”. The “gemcabene pharmacokinetic profile in combination with atorvastatin prototype versus administered alone” value in data set [2] is recorded as “essentially the same”.
